Measured values published in patent US5188830A, “Methods for thrombolytic therapy” (Merck & Co., Inc., priority 1990, dated 1993).

Test system: blood clots
Test: in vitro clot lysis assay (release of solubilized 125I-fibrin-derived fragments, lysis initiated by TPA)
Description: In the assay, whole blood or plasma is charged with ^125 I-fibrinogen. Thrombin is added to initiate clot formation and subsequently incubated for 2 hours to complete the cross-linking by endogenous Factor XIII. Factor XIIIa inhibitor is added prior to clot initiation or at various times during the 2-hour incubation. At the end of this period, the labelled clot is washed and lysis is initiated by exogenous tissue plasminogen activator (TPA). Exogenous plasminogen is employed in some experiments. Endogenous plasminogen is used for others. Clot dissolution as a function of time is monitored by the release of solubilized ^125 I-fibrin-derived fragments.
In FIGS. 1 and 2, the open symbols indicate absence of cerulenin and the closed symbols indicate the presence of 200 μM cerulenin at the time of clot formation. Clot lysis is conducted in buffer, pH 7.5; 5 ng/mL TPA represents approximate physiologic concentration. 50 to […] represents pharmacologic concentration range. […] FIG. 2 studies employed glu-plasminogen levels at approximately 10 percent physiologic level (12 μ/mL).

## C/C=C/C/C=C/CCC(=O)[C@H]1O[C@H]1C(N)=O [Cerulenin, 3-(1-oxo-4,7-nonadienyl)-oxiranecarboxamide]
200 μM cerulenin at clot formation, no exogenous plasminogen, TPA at physiological and pharmacological levels, buffer pH 7.5 (FIG. 1)
  rates and extents of clot lysis: enhanced rates and extents of lysis
200 μM cerulenin, 12 μg/mL exogenous glu-plasminogen, TPA, buffer pH 7.5 (FIG. 2)
  rate of TPA catalyzed clot lysis: lysis rates were further enhanced
